Laboratory results taken from patent US10722484B2, “Methods of cancer treatment” (K-Gen, Inc., priority 2016, dated 2020).
Like-named read-outs stand apart in the source and are kept apart here.

What was measured:
Assay in all cases: Proliferation assay (CellTiter Glo)
Capan-1 = assay type: cell-based; conditions: 96 hours; for EC50: Homo sapiens
Method: (§1) The dose range for most compounds was 4.6 nM-30 μM. The dose ranges for some compounds were adjusted downward to 0.46 nM-3 μM or 0.08 nM-0.5 μM or 0.03 nM-0.2 μM. […] The results are shown in Tables 3-6 for pancreatic cancer, lung cancer, colon/gastric cancer, and leukemia.

HCT116 = assay type: cell-based; conditions: 96 hours; for EC50: Homo sapiens, HCT-116
Method: as §1

KP-4 = assay type: cell-based; conditions: 96 hours; for EC50: Homo sapiens
Method: as §1

A549 = assay type: cell-based; conditions: 96 hours; for EC50: Homo sapiens
Method: as §1

H441 = assay type: cell-based; conditions: 96 hours; for EC50: Homo sapiens, NCI-H441
Method: as §1

CCRF-CEM = assay type: cell-based; conditions: 96 hours; for EC50: Homo sapiens
Method: as §1

H727 = assay type: cell-based; conditions: 96 hours; for EC50: Homo sapiens, NCI-H727
Method: as §1

AsPC-1 = assay type: cell-based; conditions: 96 hours; for EC50: Homo sapiens, ASPC1
Method: as §1

Pan2.13 = assay type: cell-based; conditions: 96 hours
Method: as §1

LS180 = assay type: cell-based; conditions: 96 hours
Method: as §1

SW620 = assay type: cell-based; conditions: 96 hours
Method: as §1

H358 = assay type: cell-based; conditions: HE58, 96 hours; for EC50: Homo sapiens, NCI-H358
Method: as §1

Pan2.03 = assay type: cell-based; conditions: 96 hours
Method: as §1

AGS = assay type: cell-based; conditions: 96 hours; for EC50: Homo sapiens
Method: as §1

HT29 = assay type: cell-based; conditions: HT29 (RAS WT); 96 hours
BxPC-3 = assay type: cell-based; conditions: BxPC-3 (RAS WT); 96 hours
Colo205 = assay type: cell-based; conditions: Colo205 (RAS WT); 96 hours
H1915 = assay type: cell-based; conditions: H1915 (RAS WT); 96 hours
RPMI8226 = assay type: cell-based; conditions: RPM18226; 96 hours
H838 = assay type: cell-based; conditions: H838 (RAS WT); 96 hours
SW900 = assay type: cell-based; conditions: SW900 (K-RAS: G12V); 96 hours
MiaPaCa-2 = assay type: cell-based; conditions: 96 hours; for EC50: Homo sapiens, MIA PaCa-2
HL60 = assay type: cell-based, human; conditions: 96 hours; for EC50: Homo sapiens, HL-60
Method: as §1

THP1 = assay type: cell-based, human; conditions: 96 hours; for EC50: Homo sapiens, THP-1
Method: as §1

`C/C=C(/C)C(=O)O[C@H]1C(C)=C[C@]23C(=O)[C@@H](C=C(CO)[C@@H](O)[C@]12O)[C@H]1[C@@H](C[C@H]3C)C1(C)C` [Compound K102, ingenol-3-angelate] was tested, and the “Top Inhibition %” value (Capan-1; Capan-1, % of top inhibition) was 46.9%, the EC50 (Capan-1; Capan-1 (K-RAS: G12V), absolute EC50, read-out: Ab EC50) was > 30000 nM and the EC50 (Capan-1; Capan-1, relative EC50, read-out: Re EC50) was 13 nM. For the same molecule, the “Top Inhibition %” value (HCT116; HCT116, % of top inhibition) was 23.2%, the EC50 (HCT116; HCT116 (K-RAS: G13D), absolute EC50, read-out: Ab EC50) was > 3000 nM and the EC50 (HCT116; HCT116, relative EC50, read-out: Re EC50) was 21 nM. The EC50 (KP-4; KP-4 (K-RAS: G12C), absolute EC50, read-out: Ab EC50) was 15 nM, the EC50 (KP-4; KP-4, relative EC50, read-out: Re EC50) was 15 nM and the “Top Inhibition %” value (KP-4; KP-4, % of top inhibition) was 62.2%. For the same molecule, the “Top Inhibition %” value (A549; A549, % of top inhibition) was 80.8%, the EC50 (A549; A549 (K-RAS: G12S), absolute EC50, read-out: Ab EC50) was 17 nM and the EC50 (A549; A549, relative EC50, read-out: Re EC50) was 17 nM. For the same molecule, the “Top Inhibition %” value (H441; H441, % of top inhibition) was 50.6%, the EC50 (H441; H441 (K-RAS: G12V), absolute EC50, read-out: Ab EC50) was 1010 nM and the EC50 (H441; H441, relative EC50, read-out: Re EC50) was 2.4 nM. The “Top Inhibition %” value (CCRF-CEM; CCRF-CEM, % of top inhibition) was 30.3%, the EC50 (CCRF-CEM; CCRF-CEM (K-RAS: G12D), absolute EC50, read-out: Ab EC50) was > 3000 nM and the EC50 (CCRF-CEM; CCRF-CEM, relative EC50, read-out: Re EC50) was 0.9 nM. For the same molecule, the “Top Inhibition %” value (H727; H727, % of top inhibition) was 61.0%, the EC50 (H727; H727 (K-RAS: G12V), absolute EC50, read-out: Ab EC50) was 22 nM and the EC50 (H727; H727, relative EC50, read-out: Re EC50) was 4.3 nM. The “Top Inhibition %” value (AsPC-1; AsPC-1, % of top inhibition) was 37.8%, the EC50 (AsPC-1; AsPC-1 (K-RAS: G12D), absolute EC50, read-out: Ab EC50) was > 3000 nM and the EC50 (AsPC-1; AsPC-1, relative EC50, read-out: Re EC50) was 14 nM. For the same molecule, the EC50 (Pan2.13; Pan2.13 (K-RAS: Q61H), absolute EC50, read-out: Ab EC50) was 3.9 nM, the “Top Inhibition %” value (Pan2.13; Pan2.13, % of top inhibition) was 51.7% and the EC50 (Pan2.13; Pan2.13, relative EC50, read-out: Re EC50) was 1.2 nM. The EC50 (LS180; Homo sapiens, LS180 (K-RAS: G12D), absolute EC50, read-out: Ab EC50) was > 30000 nM, the “Top Inhibition %” value (LS180; LS180, % of top inhibition) was 9.3% and the EC50 (SW620; Homo sapiens, SW-620, SW620 (K-RAS: G12V), absolute EC50, read-out: Ab EC50) was > 30000 nM. For the same molecule, the “Top Inhibition %” value (SW620; SW620, % of top inhibition) was 0.0%, the “Top Inhibition %” value (H358; % of top inhibition) was 57.5% and the EC50 (H358; absolute EC50, read-out: Ab EC50) was 97 nM. For the same molecule, the EC50 (H358; relative EC50, read-out: Re EC50) was 4.5 nM, the EC50 (Pan2.03; Pan2.03 (K-RAS: G12D), absolute EC50, read-out: Ab EC50) was > 3000 nM and the “Top Inhibition %” value (Pan2.03; Pan2.03, % of top inhibition) was 36.9%. For the same molecule, the EC50 (Pan2.03; Pan2.03, relative EC50, read-out: Re EC50) was 3.3 nM, the “Top Inhibition %” value (AGS; AGS, % of top inhibition) was 42.9% and the EC50 (AGS; AGS (gastric, K-RAS: G12D), absolute EC50, read-out: Ab EC50) was > 3000 nM. For the same molecule, the EC50 (AGS; AGS, relative EC50, read-out: Re EC50) was 12 nM, the “Top Inhibition %” value (HT29) was 17.3% and the “Top Inhibition %” value (BxPC-3) was 44.13%. For the same molecule, the “Top Inhibition %” value (Colo205) was 86.0%, the “Top Inhibition %” value (H1915) was 30.8% and the “Top Inhibition %” value (RPMI8226) was 27.06%. The “Top Inhibition %” value (H838) was 25.5%, the “Top Inhibition %” value (SW900) was 20.1% and the EC50 (MiaPaCa-2; MiaPaCa-2 (K-RAS: G12C), absolute EC50, read-out: Ab EC50) was 13 nM. For the same molecule, the EC50 (MiaPaCa-2; MiaPaCa-2, relative EC50, read-out: Re EC50) was 9 nM, the “Top Inhibition %” value (MiaPaCa-2; MiaPaCa-2, % of top inhibition) was 79.3% and the “Top Inhibition %” value (HL60; HL60, % of top inhibition) was 60.1%. The EC50 (HL60; HL60 (N-RAS: Q61L), absolute EC50, read-out: Ab EC50) was 15 nM, the EC50 (HL60; HL60, relative EC50, read-out: Re EC50) was 14 nM and the EC50 (THP1; THP1 (N-RAS: G12D), absolute EC50, read-out: Ab EC50) was 15 nM. For the same molecule, the EC50 (THP1; THP1, relative EC50, read-out: Re EC50) was 12 nM and the “Top Inhibition %” value (THP1; THP1, % of top inhibition) was 52.4%.
